From PubChem BioAssay AID226 (DTP/NCI, 2004)
“And” between values parts separate entries of the source, which are not always exact repeats. Equal entries are not always repeated. Inconclusive results and toxic doses are left out.

Tested on: B6C3F1 mice, intracerebral ependymoblastoma, median survival T/C
Experiment: NCI In Vivo Anticancer Drug Screen. Data for tumor model Ependymoblastoma (intracerebral) in B6C3F1 mice
Details: endpoint: median survival time, higher = longer survival
Description: The antitumor activity of compounds was measured in mice bearing transplantable tumors. Survival or tumor size were measured and the results are expressed as the measurement made in the treated group (T) divided by the measurement made in the vehicle treated control group (C). The tumor model used in this assay is Ependymoblastoma (intracerebral) in B6C3F1 mice

[1] = dose: 12.5 mg/kg/injection, schedule: Q01DX005 (ip), vehicle: saline
[2] = dose: 25.0 mg/kg/injection, schedule: Q01DX005 (ip), vehicle: saline
[3] = dose: 1.56 mg/kg/injection, schedule: Q01DX005 (ip), vehicle: saline with Tween-80
[4] = dose: 3.12 mg/kg/injection, schedule: Q01DX005 (ip), vehicle: saline with Tween-80
[5] = dose: 25.0 mg/kg/injection, schedule: Q01DX005 (ip), vehicle: saline with Tween-80
[6] = dose: 50.0 mg/kg/injection, schedule: Q01DX005 (ip), vehicle: saline with Tween-80
[7] = dose: 4.0 mg/kg/injection, schedule: Q01DX005 (ip), vehicle: saline with Tween-80
[8] = dose: 8.0 mg/kg/injection, schedule: Q01DX005 (ip), vehicle: saline with Tween-80
[9] = dose: 16.0 mg/kg/injection, schedule: Q01DX005 (ip), vehicle: saline with Tween-80
[10] = dose: 32.0 mg/kg/injection, schedule: Q01DX005 (ip), vehicle: saline with Tween-80
[11] = dose: 64.0 mg/kg/injection, schedule: Q01DX005 (ip), vehicle: saline with Tween-80

## COc1c(C)c2c(c(O)c1C/C=C(\C)CCC(=O)O)C(=O)OC2
[1]
  T/C: 101 % of control
[2]
  T/C: 105 % of control
dose: 50.0 mg/kg/injection, schedule: Q01DX005 (ip), vehicle: saline
  T/C: 100 % of control
dose: 100.0 mg/kg/injection, schedule: Q01DX005 (ip), vehicle: saline
  T/C: 98 % of control
dose: 200.0 mg/kg/injection, schedule: Q01DX005 (ip), vehicle: saline
  T/C: 102 % of control
dose: 400.0 mg/kg/injection, schedule: Q01DX005 (ip), vehicle: saline
  T/C: 98 % of control

## O=C1C(=O)c2ccccc2C(O)=C1CC=C(Cl)Cl
dose: 10.0 mg/kg/injection, schedule: Q01DX005 (ip), vehicle: Klucel (hydroxypropylcellulose) (HPC)
  T/C: 100 % of control and 103 % of control
dose: 20.0 mg/kg/injection, schedule: Q01DX005 (ip), vehicle: Klucel (hydroxypropylcellulose) (HPC)
  T/C: 96 % of control and 98 % of control
dose: 40.0 mg/kg/injection, schedule: Q01DX005 (ip), vehicle: Klucel (hydroxypropylcellulose) (HPC)
  T/C: 103 % of control and 89 % of control
dose: 80.0 mg/kg/injection, schedule: Q01DX005 (ip), vehicle: Klucel (hydroxypropylcellulose) (HPC)
  T/C: 96 % of control and 103 % of control

## NC(=S)Nc1cccc2ccccc12
[3]
  T/C: 92 % of control
[4]
  T/C: 100 % of control and 88 % of control
dose: 6.25 mg/kg/injection, schedule: Q01DX005 (ip), vehicle: saline with Tween-80
  T/C: 92 % of control and 93 % of control
dose: 12.5 mg/kg/injection, schedule: Q01DX005 (ip), vehicle: saline with Tween-80
  T/C: 91 % of control
[5]
  T/C: 88 % of control and 89 % of control
[6]
  T/C: 91 % of control

## O=NN(CCCl)C(=O)NC1[C@H](O)CCC[C@@H]1O (stereo partly drawn)
dose: 2.59 mg/kg/injection, schedule: Q01DX005 (ip), vehicle: Klucel (hydroxypropylcellulose) (HPC)
  T/C: 236 % of control
dose: 4.32 mg/kg/injection, schedule: Q01DX001 (ip), vehicle: saline
  T/C: 115 % of control
dose: 4.32 mg/kg/injection, schedule: Q01DX005 (ip), vehicle: Klucel (hydroxypropylcellulose) (HPC)
  T/C: 357 % of control
dose: 4.32 mg/kg/injection, schedule: Q01DX005 (ip), vehicle: saline
  T/C: 281 % of control
dose: 7.2 mg/kg/injection, schedule: Q01DX005 (ip), vehicle: Klucel (hydroxypropylcellulose) (HPC)
  T/C: 357 % of control
dose: 7.2 mg/kg/injection, schedule: Q01DX005 (ip), vehicle: saline
  T/C: 281 % of control
dose: 12.0 mg/kg/injection, schedule: Q01DX001 (ip), vehicle: saline
  T/C: 163 % of control
dose: 12.0 mg/kg/injection, schedule: Q01DX005 (ip), vehicle: Klucel (hydroxypropylcellulose) (HPC)
  T/C: 88 % of control
dose: 20.0 mg/kg/injection, schedule: Q01DX001 (ip), vehicle: saline
  T/C: 218 % of control

## O=NN(CCF)C(=O)NC1C(O)CCCC1O (stereo not drawn)
dose: 5.18 mg/kg/injection, schedule: Q01DX005 (ip), vehicle: Klucel (hydroxypropylcellulose) (HPC)
  T/C: 189 % of control
dose: 8.64 mg/kg/injection, schedule: Q01DX005 (ip), vehicle: Klucel (hydroxypropylcellulose) (HPC)
  T/C: 230 % of control
dose: 13.0 mg/kg/injection, schedule: Q01DX001 (ip), vehicle: saline
  T/C: 115 % of control
dose: 14.4 mg/kg/injection, schedule: Q01DX005 (ip), vehicle: Klucel (hydroxypropylcellulose) (HPC)
  T/C: 357 % of control
dose: 24.0 mg/kg/injection, schedule: Q01DX005 (ip), vehicle: Klucel (hydroxypropylcellulose) (HPC)
  T/C: 111 % of control
dose: 36.0 mg/kg/injection, schedule: Q01DX001 (ip), vehicle: saline
  T/C: 159 % of control
dose: 60.0 mg/kg/injection, schedule: Q01DX001 (ip), vehicle: saline
  T/C: 247 % of control
dose: 100.0 mg/kg/injection, schedule: Q01DX001 (ip), vehicle: saline
  T/C: 157 % of control

## CN(CO)c1nc(N(C)CO)nc(N(C)CO)n1
dose: 0.78 mg/kg/injection, schedule: Q01DX005 (ip), vehicle: saline with Tween-80
  T/C: 98 % of control
[3]
  T/C: 100 % of control and 105 % of control
[4]
  T/C: 94 % of control and 105 % of control and 110 % of control
dose: 3.12 mg/kg/injection, schedule: Q01DX009 (ip), vehicle: Klucel (hydroxypropylcellulose) (HPC)
  T/C: 95 % of control and 120 % of control
[7]
  T/C: 98 % of control
dose: 6.25 mg/kg/injection, schedule: Q01DX009 (ip), vehicle: Klucel (hydroxypropylcellulose) (HPC)
  T/C: 96 % of control and 108 % of control and 111 % of control
[8]
  T/C: 89 % of control
dose: 12.5 mg/kg/injection, schedule: Q01DX009 (ip), vehicle: Klucel (hydroxypropylcellulose) (HPC)
  T/C: 93 % of control and 111 % of control
[9]
  T/C: 97 % of control
dose: 25.0 mg/kg/injection, schedule: Q01DX009 (ip), vehicle: Klucel (hydroxypropylcellulose) (HPC)
  T/C: 104 % of control and 114 % of control and 124 % of control
[10]
  T/C: 94 % of control
dose: 50.0 mg/kg/injection, schedule: Q01DX009 (ip), vehicle: Klucel (hydroxypropylcellulose) (HPC)
  T/C: 120 % of control
[11]
  T/C: 95 % of control
dose: 100.0 mg/kg/injection, schedule: Q01DX005 (ip), vehicle: saline with Tween-80
  T/C: 119 % of control

## S=P(N1CC1)(N1CC1)N1CC1
dose: 8.0 mg/kg/injection, schedule: Q01DX005 (ip), vehicle: saline
  T/C: 169 % of control

## O=C1NC(c2ccc(Cl)cc2)(c2ccc(Cl)cc2)C(=O)N1Cl
dose: 1.56 mg/kg/injection, schedule: Q01DX009 (ip), vehicle: saline with Tween-80
  T/C: 102 % of control
dose: 3.13 mg/kg/injection, schedule: Q01DX009 (ip), vehicle: saline with Tween-80
  T/C: 105 % of control
dose: 6.25 mg/kg/injection, schedule: Q01DX009 (ip), vehicle: saline with Tween-80
  T/C: 102 % of control
dose: 12.5 mg/kg/injection, schedule: Q01DX009 (ip), vehicle: saline with Tween-80
  T/C: 101 % of control and 104 % of control
dose: 25.0 mg/kg/injection, schedule: Q01DX009 (ip), vehicle: saline with Tween-80
  T/C: 95 % of control and 99 % of control
dose: 50.0 mg/kg/injection, schedule: Q01DX009 (ip), vehicle: saline with Tween-80
  T/C: 101 % of control

## O=P1(N(CCCl)CCCl)NC(OO)CCO1 (stereo not drawn)
dose: 40.0 mg/kg/injection, schedule: Q01DX001 (ip), vehicle: saline
  T/C: 102 % of control
dose: 80.0 mg/kg/injection, schedule: Q01DX001 (ip), vehicle: saline
  T/C: 108 % of control
dose: 160.0 mg/kg/injection, schedule: Q01DX001 (ip), vehicle: saline
  T/C: 113 % of control

## CC(=O)OCC1OC(n2cnc3c(=S)nc(N)[nH]c32)C(OC(C)=O)C1OC(C)=O (stereo not drawn)
dose: 3.12 mg/kg/injection, schedule: Q01DX005 (ip), vehicle: saline
  T/C: 102 % of control and 109 % of control
dose: 6.25 mg/kg/injection, schedule: Q01DX005 (ip), vehicle: saline
  T/C: 104 % of control and 105 % of control and 116 % of control
[1]
  T/C: 98 % of control and 110 % of control
[2]
  T/C: 104 % of control

## CCCCCN(C)/N=N/c1nc[nH]c1C(N)=O
[11]
  T/C: 153 % of control
dose: 128.0 mg/kg/injection, schedule: Q01DX005 (ip), vehicle: saline with Tween-80
  T/C: 160 % of control

## CCCC(=O)OCC1OC(n2cnc3c(=S)nc[nH]c32)C(OC(=O)CCC)C1OC(=O)CCC (stereo not drawn)
[5]
  T/C: 103 % of control
[6]
  T/C: 105 % of control

## CC(C)NCC(O)COc1cccc2ccccc12 (stereo not drawn)
[7]
  T/C: 107 % of control
dose: 4.0 mg/kg/injection, schedule: Q01DX009 (ip), vehicle: saline with Tween-80
  T/C: 107 % of control
[8]
  T/C: 101 % of control
dose: 8.0 mg/kg/injection, schedule: Q01DX009 (ip), vehicle: saline with Tween-80
  T/C: 101 % of control
[9]
  T/C: 112 % of control
dose: 16.0 mg/kg/injection, schedule: Q01DX009 (ip), vehicle: saline with Tween-80
  T/C: 115 % of control
[10]
  T/C: 107 % of control
dose: 32.0 mg/kg/injection, schedule: Q01DX009 (ip), vehicle: saline with Tween-80
  T/C: 105 % of control
[11]
  T/C: 107 % of control
dose: 64.0 mg/kg/injection, schedule: Q01DX009 (ip), vehicle: saline with Tween-80
  T/C: 107 % of control

## Nc1ccn(C2OC(COP(=O)(O)O)C(O)C2O)c(=O)n1 (stereo not drawn)
dose: 16.0 mg/kg/injection, schedule: Q01DX005 (ip), vehicle: saline
  T/C: 96 % of control
dose: 32.0 mg/kg/injection, schedule: Q01DX005 (ip), vehicle: saline
  T/C: 95 % of control
dose: 64.0 mg/kg/injection, schedule: Q01DX005 (ip), vehicle: saline
  T/C: 107 % of control
dose: 128.0 mg/kg/injection, schedule: Q01DX005 (ip), vehicle: saline
  T/C: 112 % of control

## COc1cc2c(cc1O)N=C[C@@H]1CCC(O)N1C2=O (mixture of isomers)
dose: 2.0 mg/kg/injection, schedule: Q01DX005 (ip), vehicle: distilled water + Tween-80
  T/C: 95 % of control
dose: 4.0 mg/kg/injection, schedule: Q01DX005 (ip), vehicle: distilled water + Tween-80
  T/C: 92 % of control
dose: 8.0 mg/kg/injection, schedule: Q01DX005 (ip), vehicle: distilled water + Tween-80
  T/C: 87 % of control

## CN(C)N=Nc1ccc(C(=O)O)cc1
[10]
  T/C: 122 % of control
